Patent US6083969A, “1,3- and 2,3-diarylcycloalkano and cycloalkeno pyrazoles as selective inhibitors of cyclooxygenase-2 and antiinflammatory agents” (Ortho-McNeil Pharaceutical, Inc., priority 1999, dated 2000)

How the values were obtained:
[1] = molecular target: T1, human prostaglandin H2 synthase type II (COX-2) (Homo sapiens, UniProt P35354); assay: Human prostaglandin H2 synthase type II (COX-2) whole cell assay (ECV-304 cells, PGE2 by radioimmunoassay); assay type: cell-based; parameters: endogenous in cells; host or cells: ECV-304; conditions: for inhibition at 10 µM / inhibition at 3 µM: read-out: P1: COX 2 Whole Cell % Inhibition; for IC50: read-out: P2: COX 2 Whole Cell IC50; for inhibition at 3 µM: @3 μM (superscript a)
T1 sequence (P35354 18-604): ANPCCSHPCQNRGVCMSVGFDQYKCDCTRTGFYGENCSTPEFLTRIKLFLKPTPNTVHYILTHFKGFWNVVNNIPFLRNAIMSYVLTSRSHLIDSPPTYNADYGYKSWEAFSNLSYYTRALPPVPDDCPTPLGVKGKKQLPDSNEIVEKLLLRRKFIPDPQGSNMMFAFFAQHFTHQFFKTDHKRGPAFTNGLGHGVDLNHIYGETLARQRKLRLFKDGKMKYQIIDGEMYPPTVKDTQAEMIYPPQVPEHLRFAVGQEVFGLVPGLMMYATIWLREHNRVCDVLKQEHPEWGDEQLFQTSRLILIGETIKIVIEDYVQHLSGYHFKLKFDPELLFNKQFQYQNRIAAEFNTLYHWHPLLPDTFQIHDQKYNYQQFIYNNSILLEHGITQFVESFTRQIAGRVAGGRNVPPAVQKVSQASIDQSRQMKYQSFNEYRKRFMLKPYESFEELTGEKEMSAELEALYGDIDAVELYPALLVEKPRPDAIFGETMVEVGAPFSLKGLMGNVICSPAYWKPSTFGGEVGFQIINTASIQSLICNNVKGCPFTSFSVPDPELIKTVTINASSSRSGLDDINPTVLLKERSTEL
Experimental: HUMAN PROSTAGLANDIN H2 SYNTHASE TYPE II (COX-2) WHOLE CELL ASSAY (MULTIPLE CONCENTRATIONS)
Procedures 1 and 2 were used to determine the ability of the compounds to inhibit human prostaglandin H2 synthase type II (COX-2) in a whole cell assay at multiple concentrations as follows:
Approximately 28 h later, […] PMA and […] ionomycin (both final concentrations) are added to each well and incubated for an additional 16 h. Vehicle or test compounds in the amount of […] are incubated with the cells for five minutes prior to initiation of COX-2 enzyme activity by the addition of 30 μM arachidonic acid. Ten minutes later, an aliquot of the supernatant is withdrawn and the amount of PGE2 present quantitated by radioimmunoassay. Activity, reported as percent inhibition of PGE2 produced, is calculated as follows: [formula]

COX-1 = molecular target: T2, COX-1 (Homo sapiens, UniProt P23219); assay: Human platelet thromboxane B2 production (via COX-1); assay type: cell-based; conditions: human platelets, TXB2 production; read-out: P5: COX 1 Human Platelet IC50
T2 construct: Remove the platelet-rich plasma (PRP) and dilute the PRP 1:20 with 0.9% NaCl; endogenous in cells; host or cells: human platelets (platelet-rich plasma of one volunteer)
Experimental: HUMAN […] THROMBOXANE B2 PRODUCTION (via COX-1)
Procedure 5 was used to determine thromboxane B2 (TXB2) production (via COX-1) in human platelets as follows:
Draw blood from one volunteer into heparinized tubes then spin at RT for 15 to 20 minutes at 1,000 RPM. Remove the platelet-rich plasma (PRP) and dilute the PRP 1:20 with 0.9% NaCl containing 14.4U heparin/mL. Add 180 μL of the diluted PRP to each well of a 96-well plate and incubate at 37° C. for 5 minutes. Then add 20 μL vehicle (HBSS with 1% DMSO) or drug and incubate for 15 minutes at 37° C. Add 10 μl calcium ionophore and incubate 15 minutes at 37° C. Stop the reaction on slush ice for 5 minutes and assay supernatants immediately for TXB2 production via RIA or EIA.
Prepare all drugs at 10 mM in DMSO by diluting the drug in HBSS at a 1.100 ratio with 1% DMSO to 100 μM. Add 20 μl to PRP (1:10 ratio) to obtain 10 μM final concentration. The calcium ionophore is prepared by using 7 mg/mL free acid calcium ionophore in DMSO, which is warmed until the ionophore goes into solution. Just prior to use, dilute the solution 1:25 with HBSS.

[2] = molecular target: T3, human prostaglandin H2 synthase type I (COX-1) (Homo sapiens, UniProt P23219); assay: Human prostaglandin H2 synthase type I (COX-1) homogenate assay (transfected COS-7 cells, PGE2 formation); assay type: biochemical; conditions: @10 μM; COS-7 homogenate; read-out: P6: COX 1 Homogenized Cell % Inhibition
T3 construct: expressed in transfected cells; host or cells: COS-7 (African Green Monkey Kidney)
Experimental: HUMAN PROSTAGLANDIN H2 SYNTHASE--TYPE I (COX-1) HOMOGENATE ASSAY (SINGLE CONCENTRATION)
Procedures 6 and 7 were used to assess COX-1 activity in a homogenized cell assay as follows:
(§1) COS-7 (African Green Monkey Kidney) cells are maintained in a suitable medium, and are trypsinized and plated at a density of 1×10^6 cells/well of a 6 well plate prior to assay. Approximately 24 hours later, cells are transiently transfected with a plasmid containing the human COX-1 gene using the lipofectamine method. Two days later, the cell-free homogenate is prepared by subjecting the cells to a polytron followed by centrifugation at 9,000×g. COX activity, initiated by the addition of […] arachidonic acid to the 9,000×g supernatant, is monitored in the presence of vehicle or drug. Product (PGE2) formation is quantitated by radioimmunoassay. Activity, reported as percent inhibition of PGE2 produced, is calculated as follows: [formula]

[3] = molecular target: T1, human prostaglandin H2 synthase type II (COX-2); assay: Human prostaglandin H2 synthase type II (hCOX-2) homogenate assay (transfected COS-7 cells, PGE2 formation); assay type: biochemical; parameters: expressed in transfected cells; host or cells: COS-7 (African Green Monkey Kidney); conditions: COS-7 homogenate; read-out: P4: COX 2 Homogenized Cell IC50
Experimental: HUMAN PROSTAGLANDIN H2 SYNTHASE TYPE II (hCOX-2) HOMOGENATE ASSAY (SINGLE CONCENTRATION)
Procedures 3 and 4 were used to assess COX-2 activity in a homogenized cell assay as follows:
as §1, with “COX-2” for “COX-1”

T2 sequence (P23219 24-599): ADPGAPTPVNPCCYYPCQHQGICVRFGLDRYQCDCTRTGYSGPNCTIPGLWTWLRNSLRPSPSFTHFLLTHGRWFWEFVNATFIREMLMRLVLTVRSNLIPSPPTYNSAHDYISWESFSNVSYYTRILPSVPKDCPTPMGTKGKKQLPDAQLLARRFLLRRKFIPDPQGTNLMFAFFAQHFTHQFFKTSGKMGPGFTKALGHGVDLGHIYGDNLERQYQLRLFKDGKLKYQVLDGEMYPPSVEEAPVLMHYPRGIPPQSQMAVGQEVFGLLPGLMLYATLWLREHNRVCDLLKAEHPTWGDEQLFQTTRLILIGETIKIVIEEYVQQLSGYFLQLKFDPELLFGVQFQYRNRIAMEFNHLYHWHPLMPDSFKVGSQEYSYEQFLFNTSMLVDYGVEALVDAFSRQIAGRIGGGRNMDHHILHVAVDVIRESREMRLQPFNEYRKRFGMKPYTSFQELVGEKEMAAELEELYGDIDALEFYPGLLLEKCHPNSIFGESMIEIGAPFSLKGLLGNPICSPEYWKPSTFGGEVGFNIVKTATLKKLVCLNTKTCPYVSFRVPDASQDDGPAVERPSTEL
T3 sequence (P23219 24-599): as above

| Compound | IC50 (COX-1) [µM] | IC50 [1] [µM] | further results |
| --- | --- | --- | --- |
| Clc1ccc(-c2nn(-c3ccc(Cl)cc3)c3c2CCC3)cc1 [Example 2, 1,3-Di-(4-Chlorophenyl)-cyclopenta-[1,2-d]-pyrazole] | – | – | inhibition at 10 µM [1]: 0% |
| Clc1ccc(-c2nn(-c3ccccc3)c3c2CCC3)cc1 [Example 3-1] | 10 | 2.59 | – |
| CS(=O)(=O)c1ccc(-n2nc(-c3ccc(Cl)cc3)c3c2C=CCC3)cc1 [Example 4a, 3-(4-Chlorophenyl)-4,5-dihydro-1-(4-methylsulfonylphenyl)-1H-indazole] | > 10 | > 10 | inhibition at 10 µM [1]: 0%; inhibition at 10 µM [2]: 32% |
| CS(=O)(=O)c1ccc(-n2nc3c(c2-c2ccc(Cl)cc2)CCC=C3)cc1 [Example 4b] | > 10 | 2.33 | – |
| CS(=O)(=O)c1ccc(-n2nc3c(c2-c2ccc(F)cc2)CCC=C3)cc1 [Example 5b] | – | 4.75 | – |
| c1ccc(-c2nn(-c3ccccc3)c3c2CCCC3)cc1 [Example 6, 1,3-Diphenyl-cyclohexa-[1,2-d]-pyrazole] | 0.49 | 0.57 | – |
| Clc1ccc(-c2c3c(nn2-c2ccccc2)CCCC3)cc1 [Example 6-1a, 3-(4-Chlorophenyl)-4,5,6,7-tetrahydro-2-phenyl-2H-indazole] | > 10 | 0.57 | – |
| Clc1ccc(-c2nn(-c3ccccc3)c3c2CCCC3)cc1 [Example 6-1b, 3-(4-Chlorophenyl)-4,5,6,7-tetrahydro-1-phenyl-1H-indazole] | 10 | 0.62 | – |
| c1ccc(-c2nn(-c3ccccc3)c3c2CCCCC3)cc1 [Example 7, 1,3-Diphenyl-4,5,6,7,8,-[5H]cycloheptano-[1,2-d]-pyrazole] | 0.12 | 0.17 | – |
| Clc1ccc(-c2nn(-c3ccccc3)c3c2CCCCC3)cc1 [Example 12, 3-(4-Chlorophenyl)-1-phenyl-cycloheptano-[1,2-d]-pyrazole] | 1 | 0.14 | inhibition at 10 µM [2]: 93% |
| Clc1ccc(-c2nn(-c3ccc(Cl)cc3)c3c2CCCCC3)cc1 [Example 13, 3-(4-Chlorophenyl)-1-(4-chlorophenyl)-cycloheptano-[1,2-d]-pyrazole] | – | 10 | inhibition at 10 µM [1]: 3% |
| Fc1ccc(-n2nc(-c3ccc(Cl)cc3)c3c2CCCCC3)cc1 [Example 13-1b, 3-(4-Chlorophenyl)-1-(4-fluorophenyl)-cycloheptano-[1,2-d]-pyrazole] | > 10 | > 10 | inhibition at 10 µM [1]: 59% |
| COc1ccc(-n2nc3c(c2-c2ccc(Cl)cc2)CCCCC3)cc1 [Example 13-1c] | > 10 | 19.5 | – |
| CS(=O)(=O)c1ccc(-n2nc3c(c2-c2ccc(Cl)cc2)CCCCC3)cc1 [Example 13-1d] | > 10 | 9.41 | IC50 [3]: 1.5 µM |
| Cc1ccc(-n2nc3c(c2-c2ccc(Cl)cc2)CCCCC3)cc1 [Example 13-1e] | 10 | 1.22 | – |
| Clc1ccc(-c2c3c(nn2-c2ccccc2)CCCCC3)cc1 [Example 13-1f] | 5.5 | 1.38 | – |
| COc1ccc(-n2nc3c(c2-c2ccc(F)cc2)CCCCC3)cc1 [Example 13-1g] | – | 3.64 | IC50 [3]: 8.1 µM |

| Compound | IC50 (COX-1) [µM] | IC50 [1] [µM] | further results |
| --- | --- | --- | --- |
| CS(=O)(=O)c1ccc(-n2nc3c(c2-c2ccc(F)cc2)CCCCC3)cc1 [Example 13-1h] | – | 10 | – |
| COc1ccc(-c2nn(-c3ccccc3)c3c2CCCCC3)cc1 [Example 13-2b, 3-(4-Methoxy)-1-phenyl-cycloheptano-[1,2-d]-pyrazole] | 10 | 1.24 | – |
| CS(=O)(=O)c1ccc(-n2nc3c(c2-c2ccc(F)cc2)CC2(CC3)OCCO2)cc1 [Example 30b] | – | > 10 | IC50 [3]: 21.7 µM |
| COc1ccc(-n2nc3c(c2-c2ccc(F)cc2)CC2(CC3)OCCO2)cc1 [Example 30c] | – | > 10 | IC50 [3]: 20.3 µM |
| CS(=O)(=O)c1ccc(-n2nc3c(c2-c2ccc(Cl)cc2)CCCC3)cc1 [Example 30d] | > 10 | 0.82 | – |
| CS(=O)(=O)c1ccc(-n2nc(-c3ccc(Cl)cc3)c3c2CCCC3)cc1 [Example 30e] | – | – | inhibition at 3 µM [1]: 21% |
| CS(=O)(=O)c1ccc(-n2nc3ccccc3c2-c2ccc(Cl)cc2)cc1 [Example 32d] | 16 | 0.97 | – |
| CS(=O)(=O)c1ccc(-c2c3ccccc3nn2-c2ccc(F)cc2)cc1 [Example 32e] | > 10 | 0.32 | – |
| Fc1ccc(-n2nc(-c3ccc(Cl)cc3)c3c2-c2c([nH]c4ccc(F)cc24)CC3)cc1 [Example 32f] | 0.64 | 6.2 | – |
| CS(=O)(=O)c1ccc(-n2nc(-c3ccc(C(F)(F)F)cc3)c3c2C=CCC3)cc1 [Example 32g] | > 10 | > 10 | – |
| CS(=O)(=O)c1ccc(-n2nc(-c3ccc(F)cc3)c3c2C=CCC3)cc1 [Example 32h] | – | – | inhibition at 3 µM [1]: 13% |
| CS(=O)(=O)c1ccc(-n2nc(-c3ccc(F)cc3)c3ccccc32)cc1 [Example 32i] | – | – | inhibition at 3 µM [1]: 12% |
| CS(=O)(=O)c1ccc(-n2nc3c(c2-c2ccc(Cl)cc2)CCC2OC32)cc1 (stereo not shown) [Example 48d] | – | 9.58 | – |
| CS(=O)(=O)c1ccc(-n2nc3c(c2-c2ccc(F)cc2)CCC2OC32)cc1 (stereo not shown) [Example 48e] | > 10 | 6.28 | – |
| CS(=O)(=O)c1ccc(-n2nc3c(c2-c2ccc(Cl)cc2)CCC(O)C3)cc1 (stereo not shown) [Example 49d] | > 10 | 10 | – |
| CS(=O)(=O)c1ccc(-n2nc3c(c2-c2ccc(Cl)cc2)CCC(=O)C3)cc1 [Example 52b] | > 10 | 1.44 | – |
